Source: patent US12187723B2 (BRISTOL-MYERS SQUIBB COMPANY, priority 2019, dated 2025)

Tests used:
human TLR8 = target: T1, human TLR8 (Homo sapiens, UniProt Q9NR97); assay: TLR8 inhibition reporter assay (HEK-Blue SEAP); type: cell-based; conditions: HEK-Blue cells overexpressing human TLR8, R848 15.9 μM, 22 hour incubation
T1 construct: host or cells: HEK-Blue cells
T1 sequence (Q9NR97 27-1041): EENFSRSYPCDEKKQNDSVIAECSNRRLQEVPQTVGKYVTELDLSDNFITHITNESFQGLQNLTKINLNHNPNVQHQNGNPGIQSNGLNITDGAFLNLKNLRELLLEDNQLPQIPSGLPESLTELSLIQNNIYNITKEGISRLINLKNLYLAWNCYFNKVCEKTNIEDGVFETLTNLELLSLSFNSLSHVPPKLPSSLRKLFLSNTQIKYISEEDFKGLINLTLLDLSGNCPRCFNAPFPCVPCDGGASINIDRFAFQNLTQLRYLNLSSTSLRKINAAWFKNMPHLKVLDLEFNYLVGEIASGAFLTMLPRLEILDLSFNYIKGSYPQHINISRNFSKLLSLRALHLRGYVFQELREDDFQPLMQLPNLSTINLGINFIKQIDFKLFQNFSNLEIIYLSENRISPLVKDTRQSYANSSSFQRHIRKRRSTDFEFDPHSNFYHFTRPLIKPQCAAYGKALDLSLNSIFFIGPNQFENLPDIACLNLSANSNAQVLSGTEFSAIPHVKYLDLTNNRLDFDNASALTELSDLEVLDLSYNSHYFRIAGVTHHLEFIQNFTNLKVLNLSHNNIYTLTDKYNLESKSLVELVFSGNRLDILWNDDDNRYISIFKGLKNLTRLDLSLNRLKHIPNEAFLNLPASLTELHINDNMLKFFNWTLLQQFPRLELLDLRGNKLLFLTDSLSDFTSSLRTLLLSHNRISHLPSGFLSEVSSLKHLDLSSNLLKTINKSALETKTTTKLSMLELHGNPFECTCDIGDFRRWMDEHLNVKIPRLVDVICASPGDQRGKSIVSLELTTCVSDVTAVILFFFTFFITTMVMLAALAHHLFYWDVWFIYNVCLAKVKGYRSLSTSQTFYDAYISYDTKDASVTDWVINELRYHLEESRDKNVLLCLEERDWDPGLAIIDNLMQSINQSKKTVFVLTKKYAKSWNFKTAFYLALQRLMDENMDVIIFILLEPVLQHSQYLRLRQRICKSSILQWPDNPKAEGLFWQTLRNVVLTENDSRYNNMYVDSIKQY
Outline: (§1)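 Dose–response from 0.05 nM to 50 μM was run in HEK-Blue human TLR7, TLR8 and TLR9 reporter cells. After 30 min at room temperature with compound, ligand was added (TLR7 gardiquimod 7.5 μM; TLR8 R848 15.9 μM; TLR9 ODN2006 5 nM) and SEAP measured next day, at 22 h.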

human TLR9 = target: T2, human TLR9 (Homo sapiens, UniProt Q9NR96); assay: TLR9 inhibition reporter assay (HEK-Blue SEAP); type: cell-based; conditions: HEK-Blue cells overexpressing human TLR9, ODN2006 5 nM, 22 hour incubation
T2 construct: host or cells: HEK-Blue cells
T2 sequence (Q9NR96 26-1032): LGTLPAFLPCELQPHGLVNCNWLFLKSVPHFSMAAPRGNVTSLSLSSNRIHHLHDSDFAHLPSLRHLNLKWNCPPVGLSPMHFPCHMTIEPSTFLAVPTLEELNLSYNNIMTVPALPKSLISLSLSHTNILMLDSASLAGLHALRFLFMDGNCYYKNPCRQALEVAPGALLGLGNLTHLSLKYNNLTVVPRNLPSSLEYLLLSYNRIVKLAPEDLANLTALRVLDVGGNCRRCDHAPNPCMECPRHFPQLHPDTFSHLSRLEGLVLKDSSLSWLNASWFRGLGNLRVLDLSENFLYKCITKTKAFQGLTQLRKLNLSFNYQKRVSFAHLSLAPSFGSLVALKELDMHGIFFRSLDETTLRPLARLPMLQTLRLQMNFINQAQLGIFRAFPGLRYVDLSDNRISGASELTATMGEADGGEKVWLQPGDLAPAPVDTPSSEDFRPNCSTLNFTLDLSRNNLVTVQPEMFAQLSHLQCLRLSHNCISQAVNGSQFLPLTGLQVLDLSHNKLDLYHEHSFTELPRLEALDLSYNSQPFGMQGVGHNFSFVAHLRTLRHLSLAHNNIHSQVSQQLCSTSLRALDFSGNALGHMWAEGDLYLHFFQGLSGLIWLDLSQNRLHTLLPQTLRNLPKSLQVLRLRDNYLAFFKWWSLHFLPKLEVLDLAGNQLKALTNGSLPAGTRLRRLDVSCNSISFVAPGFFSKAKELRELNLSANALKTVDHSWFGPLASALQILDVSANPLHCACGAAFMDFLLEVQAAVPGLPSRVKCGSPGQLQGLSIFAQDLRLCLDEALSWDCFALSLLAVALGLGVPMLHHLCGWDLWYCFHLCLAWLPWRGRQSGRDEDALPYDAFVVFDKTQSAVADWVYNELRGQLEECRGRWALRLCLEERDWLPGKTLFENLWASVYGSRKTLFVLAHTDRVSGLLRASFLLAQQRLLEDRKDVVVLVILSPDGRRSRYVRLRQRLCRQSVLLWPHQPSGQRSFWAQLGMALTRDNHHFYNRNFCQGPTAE
Outline: as §1

SMILES | IC50 (human TLR8) | IC50 (human TLR9)
COc1cc(-c2cc3[nH]c(=O)n([C@H]4CC[C@@H](N(C)C(C)C)CC4)c3cc2C)cn2ncnc12 [Example 84, 1-((1s,4s)-4-(isopropyl(methyl)amino)cyclohexyl)-5-(8-methoxy-[1,2,4]triazolo[1,5-a]pyridin-6-yl)-6-methyl-1,3-dihydro-2H-benzo[d]imidazol-2-one] | 0.00969 µM | 4.78 µM
COc1cc(-c2cc3[nH]c(=O)n([C@@H]4CCCN(C5CCOCC5)C4)c3cc2C)cn2ncnc12 [Example 70, (R)-5-(8-methoxy-[1,2,4]triazolo[1,5-a]pyridin-6-yl)-6-methyl-1-(1-(tetrahydro-2H-pyran-4-yl)piperidin-3-yl)-1,3-dihydro-2H-benzo[d]imidazol-2-one] | 0.117 µM | 17.6 µM
Cc1cc2c(cc1-c1cc(C)c3ncnn3c1)[nH]c(=O)n2C1CCN(CC(=O)N(C)C)CC1 [Example 89, N,N-dimethyl-2-(4-(6-methyl-5-(8-methyl-[1,2,4]triazolo[1,5-a]pyridin-6-yl)-2-oxo-2,3-dihydro-1H-benzo[d]imidazol-1-yl)piperidin-1-yl)acetamide] | 0.105 µM | 29 µM
CNC(=O)CN1CCC(n2c(=O)[nH]c3cc(-c4cc(C)c5ncnn5c4)c(C)cc32)CC1 [Example 88, N-methyl-2-(4-(6-methyl-5-(8-methyl-[1,2,4]triazolo[1,5-a]pyridin-6-yl)-2-oxo-2,3-dihydro-1H-benzo[d]imidazol-1-yl)piperidin-1-yl)acetamide] | 0.115 µM | 45.3 µM
COc1cc(-c2cc3[nH]c(=O)n(C4CCN(CC(=O)N(C)C)CC4)c3cc2C)cn2ncnc12 [Example 86, 2-(4-(5-(8-methoxy-[1,2,4]triazolo[1,5-a]pyridin-6-yl)-6-methyl-2-oxo-2,3-dihydro-1H-benzo[d]imidazol-1-yl)piperidin-1-yl)-N,N-dimethylacetamide] | 0.359 µM | 4.93 µM

Stronger by IC50 (human TLR8), values ahead:

IC50 (human TLR8) | IC50 (human TLR9) | SMILES
0.0017 µM | 3.44 µM | COc1cc(-c2cc3[nH]c(=O)n([C@H]4CC[C@@H](NC5CCCC5)CC4)c3cc2C)cn2ncnc12 [Example 65, 1-((1s,4s)-4-(cyclopentylamino)cyclohexyl)-5-(8-methoxy-[1,2,4]triazolo[1,5-a]pyridin-6-yl)-6-methyl-1,3-dihydro-2H-benzo[d]imidazol-2-one]
0.00326 µM | 7.43 µM | COc1cc(-c2cc3[nH]c(=O)n([C@H]4CC[C@@H](NC5CCOCC5)CC4)c3cc2C)cn2ncnc12 [Example 49, 5-(8-methoxy-[1,2,4]triazolo[1,5-a]pyridin-6-yl)-6-methyl-1-((1s,4s)-4-((tetrahydro-2H-pyran-4-yl)amino)cyclohexyl)-1,3-dihydro-2H-benzo[d]imidazol-2-one]
0.00465 µM | 3.34 µM | CCC(C)N[C@H]1CC[C@@H](n2c(=O)[nH]c3cc(-c4cc(C)c5ncnn5c4)c(C)cc32)CC1 (stereo partly drawn) [Example 34, 1-((1s,4s)-4-(sec-butylamino)cyclohexyl)-6-methyl-5-(8-methyl-[1,2,4]triazolo[1,5-a]pyridin-6-yl)-1,3-dihydro-2H-benzo[d]imidazol-2-one]
0.00185 µM | 2.35 µM | COc1cc(-c2cc3[nH]c(=O)n([C@H]4CC[C@@H](NC5CCCCC5)CC4)c3cc2C)cn2ncnc12 [Example 62, 1-((1s,4s)-4-(cyclohexylamino)cyclohexyl)-5-(8-methoxy-[1,2,4]triazolo[1,5-a]pyridin-6-yl)-6-methyl-1,3-dihydro-2H-benzo[d]imidazol-2-one]
